One compound from patent publication US20150219624A1, “METHODS FOR IDENTIFYING ANTI-CANCER COMPOUNDS” (MEMORIAL SLOAN KETTERING CANCER CENTER, priority 2013, published 2015) can be followed below.

For orientation: IC50 means the concentration needed to halve the response being measured.

Common to all, as to assay type: cell-based
One test concerns GQ construct. The test can be described thus: Luciferase reporter with four 12-mer motifs (GQs) vs random control 5'UTR. To be noted: 25 nM, 24 hours. As to the method: Luciferase assays. Four tandem repeats of the (CGG)4 12-mer motif (GQs) or random sequence matched for length and GC content (random) were cloned into the 5′UTR of Renilla luciferase plasmid pGL4.73. Empty firefly luciferase plasmid pGL4.13 or HCV-IRES firefly were used as internal controls. Luciferase assays were performed using Dual-Luciferase Reporter Assay System (Promega E1960) following the manufacturer's instructions. GQs sequence:
Next, directly testing the translational effect of the 12-mer sequence motif was sought. Briefly, a luciferase reporter system was constructed to directly compare four 12-mer motifs in tandem reflecting the common occurrence of multiple motifs in sensitive mRNAs (GQ construct) to a random sequence of equal length and GC content (control construct) and using an IRES-driven firefly luciferase as an internal control (FIG. 4E). […] The RNA helicases DHX9 and DHX36 have been implicated in resolving G-quadruplex structures (Booy et al., 2012; Chakraborty and Grosse, 2011), however predominant expression was found of eIF4A in T-ALL (FIG. 4G) (Van Vlierberghe et al., 2011). Further direct testing was done of the effect of RNAi-mediated eIF4A knockdown in the same assay and a striking decrease in the translation from the GQ reporter observed, with little effect on the control sequence (FIG. 4H/I). […]

The next test has as its system human T-ALL lines. The test can be described thus: mRNA levels of target genes (real-time quantitative PCR). To be noted: 25 nM. As to the method:
Real-Time Quantitative PCR. Total RNA was extracted using AllPrep DNA/RNA/Protein Mini Kit (Qiagen 80004). Normal CD3+ T-cell RNA mixed from healthy donors was purchased from Miltenyi Biotec (130-093-164). cDNA was made using SuperScript III First-Strand (Invitrogen 18080-400). Analysis was performed by ΔΔCt. Applied Biosystems Taqman GeneExpression Assays: human Myc Hs00153408_m1, hsa-miR-19b RT and TM 396, Rnu6b RT and TM 001093, and mouse Myc Mm00487804_m1.
Given the complexity of the RF data analysis, it was important to directly confirm loss of expression for at least some of these proteins. Briefly, immunoblots on JURKAT and KOPT-K1 cells treated with silvestrol (25 nM) and loaded with equal amounts of total protein confirmed dramatic loss of MYC, NOTCH1, BCL2, and CCND3 proteins (FIG. 6A). The effect on MYC was especially striking, it was dose dependent (FIG. 6B), lasted for 48 h, and was also achieved in xenografts in vivo (Figure S6A-B). […] As expected, ACTIN, TUBULIN, and GAPDH were not affected (FIG. 6A). […] The small and significant increase in MYC mRNA levels might be consistent with prior reports of a MYC auto-regulatory mechanism (Penn et al., 1990a; Penn et al., 1990b) (FIG. 6C).
FIG. 6 depicts validation of selected silvestrol targets. A) Immunoblots of lysates from human T-ALL lines treated with silvestrol (25 nM) and probed as indicated. […]

Another test relates to renal carcinoma lines. The test can be described thus: Silvestrol sensitivity of renal carcinoma lines. The conditions noted are these: ACHN, A498, CAKI-1, CAKI-2 to 786-O.
The test system of test [1] is neuroblastoma cell lines SKNAS, CLBGA, IMR32 and N206. The test is described as follows: Silvestrol IC50 in neuroblastoma cell lines SKNAS, CLBGA, IMR32 and N206.
Another test has as its system IMR32. The test can be described thus: Silvestrol in neuroblastoma cell lines in vitro: IMR32. The conditions noted are these: Homo sapiens, IMR-32; IMR32 cells, N_MYC. As to the method:
The effect of silvestrol on several neuroblastoma cell lines was evaluated.

Consider `COC(=O)[C@H]1[C@@H](O)[C@@]2(O)c3c(OC)cc(O[C@@H]4O[C@@H]([C@H](O)CO)CO[C@H]4OC)cc3O[C@@]2(c2ccc(OC)cc2)[C@@H]1c1ccccc1` [silvestrol], for which, in the test on GQ construct (normalized to IRES firefly), the “translation of the GQ construct” value is listed as “reduced the translation”. Besides, in the test with GQ construct (random sequence control construct), the “translation of the control luciferase” value is recorded as “did not reduce the translation”. For the same compound, the “corresponding mRNA expression” value in the test on human T-ALL lines is “no decrease”. Further, the sensitivity entry in the test with renal carcinoma lines was “range of sensitivities”. Also, the figures for the IC50 (in test [1]; in the test with IMR32) were 2 to 20 nM and 2.86 nM, respectively.
